The results in this text go back to BindingDB's records for doi:10.1021/jm00099a007 (Merck Research Laboratories, 1992).

The assay deals with T1, Gag-Pol polyprotein [588-1027]/[588-1147] (Human immunodeficiency virus 1, UniProt P04585).
T1 construct: 588-1027; 588-1147
The assay can be described thus: HIV-1 RT Assay.

Bounds are passed on as bounds.

What is called IC50 is the point on the concentration scale where inhibition reaches its midpoint. High values mean a need for much substance, low ones inhibition by little substance. With `O=c1[nH]c2ccccc2cc1NCc1ccc2ccccc2c1` [3-[(naphthalen-2-ylmethyl)amino]-1,2-dihydroquinolin-2-one], the IC50 was > 300 µM.
